Like-named read-outs stand apart in the source and are kept apart here. A value given as a limit tells only on which side of the number the result lay.

The conditions of series [1]: 25 μM; Table 9.
The next series deals with human telomerase (Homo sapiens, UniProt O14746). In words: Telomerase inhibition, primer extension assay in HeLa cell extract. It is filed as biochemical. Conditions: for inhibition at 25 µM: read-out: % Inhibition of telomerase.
A further series deals with HeLa. In words: cells. It is filed as cell-based, human. Conditions: hela cells.
In series [2] the test system is telomere length in MCF7 cells. In words: Telomere length analysis in MCF7 cells. It is filed as cell-based, human. The procedure: DNA was extracted from a minimum of 5×10^6 cells by SDS, proteinase K treatment, then purified and quantitated as previously described (Strahl and Blackburn, 1991). Approximately 1 μg of total DNA was digested with Mse I; the digested DNA was size fractionated by agarose gel electrophoresis and Southern blotted. The blots were hybridized with a ^32 P-labeled 0.5 kb PCR™ DNA fragments composed of the telomere repeat d(TTAGGG), which served as a probe for the telomeres. The hybridized probe was detected by autoradiography and each lane on the film was analyzed by phosphoimage analysis (Molecular Dynamics).
Telomeres shorten at an average rate of 65-100 base pairs per cell division (Counter et al., 1992). To observe a significant effect of an agent on telomere length, e.g., shortening the telomeres by >1 kilobase in MCF7 cells (5.7 kbases), a minimum of […] population doubling times will be required.

Another series has as its system PC3. Description: Cytotoxicity (MTT) PC3. It is filed as cell-based, human. The note with it: pc3 cells. As for the experimental part: (§1) The cells were cultured in the presence of the porphyrins incubator for 4-7 days and then treated with 3-(4,5-dimethylthiazol-2-yl)-2,5-diphenyl-tetrazolium bromide (MTT). Formazan concentration was quantitated by absorbance at 570 nm.

A further series relates to BT-20. In words: Cytotoxicity (MTT) BT-20. The note with it: bt-20 cells. It is filed as cell-based, human. The procedure: as §1
In a further series the test system is sea urchin embryos. The note with it: in vivo. As for the experimental part: Lytechinus pictus sea urchins were purchased from Marinus Inc. (Long Beach, Calif.) and maintained at 15° C. in refrigerated aquaria containing Instant Ocean synthetic sea water, following a described procedure [Vafa, 1996 #300]. For polyspermic fertilization, 0.01 vol freshly prepared stock sperm suspension (25 ml ASW containing 2 ml undiluted semen) was added to the eggs suspended for 10 min at 1% concentration in ASW adjusted to pH 9.0 with NH4 OH and stirred at 60 rpm with motor-driven Teflon paddles. Ten min after insemination, the fertilized eggs were allowed to settle, and the supernatant ASW containing sperm was aspirated and replaced with fresh ASW. The embryos were cultured at 18° C. Twenty min after fertilization TMPyP4 or TMPyP4.Pt^II (100 μM final concentration) was added from a concentrated stock in DMSO to 1% embryo suspensions. Equivalent amounts of DMSO (final 0.1%) were added to control egg suspensions. At measured times after insemination, the embryos were pelleted by centrifugation and resuspended in Carnoy's fixative (ethanol:acetic acid, 3:1) for at least 1 hr. After fixation the embryos were pelleted and resuspended successively in: (1) ethanol:acetic acid, 1:1 for 5-15 min: (2) 45% acetic acid for 5-15 min; (3) room temperature 1 N HCl for 1-2 min: (4) 60° C. 1 N HCl for 7-8 min; (5) room temperature 1 N HCl for 1-2 min; (6) Schiffs reagent for 90-120 min; and (7) 45% acetic acid before affixing the embryos to microscope slides. Embryo samples were placed on microscope slides, covered with coverslips, and frozen on a bed of dry ice. After at least 30 min, the coverslips were popped off using a razor blade and the slides were immediately plunged into Coplin jars containing 95% ethanol for 5-10 min. The slides were then transferred to Coplin jars containing 100% ethanol for 3-5 min. After removing the slides and allowing them to air dry, the embryos were mounted with one drop Permount (Fisher) under a coverglass.
The inventors examined whether treatment of the embryos with G-quadroplex interactive agents can cause observable chromosomal abnormalities. A time course of the embryo development was followed in the presence of 10 μM and 100 μM concentrations of TMPyP4 or TMPyP4.Pt^II.

Series [3] deals with MCF-7M. It is filed as cell-based, human. Conditions: mcf-7m cells. The procedure: (§2) Cytotoxicity of the compounds to human breast cancer cells in vitro was assessed using a panel of cell lines representing estrogen receptor-positive (BT20, MCF-7m), and a pair of estrogen receptor-negative, transformed breast (11S578t) and normal breast (HS578Bst) cells.
(§3) Thy: tritiated […] assay (n = 3 ± SEM)

A further series deals with HS578t. The series is classed as cell-based, human. The note with it: hs578t cells. As for the experimental part:
as §2, §3

A further series relates to Raji. In words: Cytotoxicity (MTT) Raji. Conditions: raji cells. The series is classed as cell-based, human. As for the experimental part:
as §1

Series [4] has as its system MCF7 human breast carcinoma cells (telomerase activity). In words: Telomerase activity in intact MCF7 cells cultured with porphyrin. The series is classed as cell-based. The procedure: To determine the long-term effects of TMPyP4 on whole cells, MCF7 breast carcinoma cells were cultured in the continuous presence of 1, 10, and 100 μM TMPyP4. The porphyrin solution was freshly added to the medium from the concentrated stock at each passage of the cells (every 3-4 days). On days 4, 8, and 15, the cells were lysed and the telomerase activity was measured in the extracts.
Breast cancer cells MCF-7m, BT20, HS578t and normal HS578Bst cells were grown in culture in T75 flasks (10^6 cells/flask). […] The cells were harvested and freeze-thawed and the extracts used to measure telomerase activity using the Dynabeads method.

For the next series, the system named is NHLF. In words: Cytotoxicity (MTT) NHLF normal lung fibroblasts. The note with it: human, nhlf cells. It is filed as cell-based. The procedure:
as §1
All porphyrins were obtained from Midcentury, Posen, Ill. The experimental work with porphyrins was performed under minimum exposure to light. All human tumor cell lines and normal human breast cells Hs578Bst were purchased from the American Type Culture Collection. Normal human lung fibroblasts NHLF were obtained from Clonetics Corporation. The cell lines were grown according to the suppliers' instructions.

For the next series, the system named is LNCap. Description: Cytotoxicity (MTT) LNCap. The series is classed as cell-based, human. Conditions: lncap cells. As for the experimental part: as §1
The test system of series [5] is MCF-7M. The series is classed as cell-based, human. The note with it: mcf-7m cells. As for the experimental part: as §2
The source holds these as a separate data set.

Another series concerns DU145. Description: Cytotoxicity (MTT) DU145. The series is classed as cell-based, human. The note with it: du145 cells. The procedure: as §1
The next series relates to MCF-7. Description: Cytotoxicity (MTT) MCF-7. It is filed as cell-based, human. The note with it: mcf-7 cells. As for the experimental part: as §1
In the next series the test system is Daudi. In words: cells. Conditions: daudi cells. The series is classed as cell-based, human. As for the experimental part:
as §1

The next series relates to MDA-231. Description: Cytotoxicity (MTT) MDA-231. The series is classed as cell-based, human. Conditions: mda-231 cells. As for the experimental part:
as §1

Sequence of human telomerase (O14746 whole entry): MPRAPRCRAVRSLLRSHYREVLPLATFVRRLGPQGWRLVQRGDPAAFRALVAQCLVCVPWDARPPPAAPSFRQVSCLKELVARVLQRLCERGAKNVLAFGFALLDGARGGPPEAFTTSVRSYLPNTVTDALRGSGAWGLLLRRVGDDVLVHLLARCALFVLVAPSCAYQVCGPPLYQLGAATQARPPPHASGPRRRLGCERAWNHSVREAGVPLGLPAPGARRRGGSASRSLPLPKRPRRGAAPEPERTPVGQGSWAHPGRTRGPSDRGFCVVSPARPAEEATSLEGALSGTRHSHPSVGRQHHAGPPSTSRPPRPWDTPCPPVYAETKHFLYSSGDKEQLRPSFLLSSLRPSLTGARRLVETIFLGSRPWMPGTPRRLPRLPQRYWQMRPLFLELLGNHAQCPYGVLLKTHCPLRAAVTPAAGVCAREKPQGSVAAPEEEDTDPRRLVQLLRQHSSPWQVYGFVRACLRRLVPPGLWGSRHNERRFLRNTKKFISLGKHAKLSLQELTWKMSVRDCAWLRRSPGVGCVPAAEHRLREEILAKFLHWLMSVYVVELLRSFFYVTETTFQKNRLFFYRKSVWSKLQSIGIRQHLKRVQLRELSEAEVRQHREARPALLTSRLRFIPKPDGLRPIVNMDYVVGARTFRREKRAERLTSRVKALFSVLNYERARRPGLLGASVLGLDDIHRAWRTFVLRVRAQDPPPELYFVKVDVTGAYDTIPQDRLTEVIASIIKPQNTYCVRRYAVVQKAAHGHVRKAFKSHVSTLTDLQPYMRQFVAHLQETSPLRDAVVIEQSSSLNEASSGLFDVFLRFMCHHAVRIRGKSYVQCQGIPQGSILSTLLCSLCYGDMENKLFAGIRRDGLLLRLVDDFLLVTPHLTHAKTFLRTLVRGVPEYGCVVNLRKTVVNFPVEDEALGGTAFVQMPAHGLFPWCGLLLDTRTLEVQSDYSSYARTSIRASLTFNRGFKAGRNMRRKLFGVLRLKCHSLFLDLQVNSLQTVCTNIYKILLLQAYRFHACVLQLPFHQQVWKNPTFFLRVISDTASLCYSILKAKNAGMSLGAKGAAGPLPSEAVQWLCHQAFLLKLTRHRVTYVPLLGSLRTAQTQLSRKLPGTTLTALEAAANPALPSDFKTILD

As to `O=[N+]([O-])c1cc(-c2c3nc(c(-c4ccc(Cl)c([N+](=O)[O-])c4)c4ccc([nH]4)c(-c4ccc(Cl)c([N+](=O)[O-])c4)c4nc(c(-c5ccc(Cl)c([N+](=O)[O-])c5)c5ccc2[nH]5)C=C4)C=C3)ccc1Cl` [Compound D13, 5,10,15,20-tetra-(4-chloro-3-nitrophenyl)porphine], the “% insoluble remark (solubility)” value in series [1] is given as “insoluble”.
Still for that read-out and setting: the same measure for `O=[N+]([O-])c1cccc(-c2c3nc(cc4ccc([nH]4)c(-c4cccc([N+](=O)[O-])c4)c4nc(cc5ccc2[nH]5)C=C4)C=C3)c1` [Compound D16]: “insoluble”.
As for `C[N+](C)(C)c1ccc(-c2c3nc(c(-c4ccc([N+](C)(C)C)cc4)c4ccc([nH]4)c(-c4ccc([N+](C)(C)C)cc4)c4nc(c(-c5ccc([N+](C)(C)C)cc5)c5ccc2[nH]5)C=C4)C=C3)cc1` [TAP (B23), tetra(N,N,N-trimethyl-4-aminophenyl)porphyrin chloride], the inhibition at 25 µM amounted to 6% on human telomerase (25 μM, Table 5) and 18% on human telomerase (25 μM, Table 13).
Consider `C[n+]1ccc(-c2c3nc(c(-c4cc[n+](C)cc4)c4ccc([n-]4)c(-c4cc[n+](C)cc4)c4nc(c(-c5cc[n+](C)cc5)c5ccc2[n-]5)C=C4)C=C3)cc1.[Cl-].[Cl-].[Cl-].[Cl-].[Pt+2]` [TMPyP4 PtII, Platinum(II)tetra(N-methyl-4-pyridyl)porphyrin chloride], for which the IC50 was 136 ± 34.8 µM with HeLa; more than 200 µM in the series on PC3; 15 µM on human telomerase (read-out: Telomerase Inhibition); 262 µM with BT-20; 434 ± 386 µM in the series with MCF-7M [3]; 214 ± 49 µM in the series with HS578t. In addition, the IC50 in the series on Raji was 64.6 µM; in the series on LNCap, 42.2 µM; with MCF-7M [5] it was 74.8 ± 31.9 µM; in the series on DU145, 1360 µM; with MCF-7 it was more than 100 µM; with Daudi it was 104 µM. The IC50 in the series with MDA-231 was more than 100 µM. In addition, in series [2], the “effect on telomere shortening” value was “No detectable effects on telomere shortening”. Moreover, at human telomerase (25 µM), the “% Inhibition of telomerase” value came out at 69%. Moreover, the “cell number and morphology of embryos” value with sea urchin embryos was “fewer cells, many very misshapen and variable in size relative to the controls”. In addition, in the series on sea urchin embryos, the “condensed chromosome length / chromosomal effects” value is on record as “Qualitatively similar results”. Further, the “differences from controls in embryos” value in the series with sea urchin embryos is “no definitive differences were seen”. Besides, the “first signs of ciliary motility” value in the series with sea urchin embryos is recorded as 9 h. Further, the toxicity to embryos result with sea urchin embryos is “generally non-toxic to the embryos”. The “telomerase activity in intact MCF7 cells” value in [4] was “less potent inhibitor than TMPyP4”. Also, the 50% cytotoxic concentration (CC50) in the series on NHLF was found to be 11.6 µM.
For the molecule `C[n+]1ccc(-c2c3nc(c(-c4cc[n+](C)cc4)c4ccc([n-]4)c(-c4cc[n+](C)cc4)c4nc(c(-c5cc[n+](C)cc5)c5ccc2[n-]5)C=C4)C=C3)cc1.[Cl-].[Cl-].[Cl-].[Cl-].[Zn+2]` [TMPyP4 ZnII], the “telomerase inhibition in words” value at human telomerase is given as “better inhibitors”. The “% Inhibition of telomerase” value on human telomerase (25 µM) came to 88%.
Turning to “Copper(II)tetra-N-methyl-tetrazaphthalocyanine [Compound D7]”, the “telomerase inhibition in words” value on human telomerase is “only slight activity”.
With “Copper(II)tetraaminophthalocyanine [Compound B14]”, the “telomerase inhibition in words” value at human telomerase was “active”.
Regarding “Ethylenediamine protoporphyrin-IX [Compound B19]”, at human telomerase (25 μM, Table 5), the “% Inhibition of telomerase” value was 0%.

(Values after US6087493A, “Porphyrin compounds as telomerase inhibitors” (Regents of the University of Texas System, priority 1998, dated 2000).)
